From patent US6903079B2, “Nucleoside compounds and compositions thereof” (Inotek Pharmaceuticals Corporation, priority 2000, dated 2005)
Read-outs that look alike come from different tables or passages of the source.

Tests used:
[1] = molecular target: T1, poly (ADP-ribose) synthetase (PARS) (Mus musculus, UniProt P11103); test: Peroxynitrite-induced PARS activation and cell injury in J774 macrophages; format: cell-based; conditions: J774 macrophages exposed to peroxynitrite
T1 construct: endogenous in cells; host or cells: J774 macrophages
Source text: In in vitro studies, J774 macrophages were exposed to peroxynitrite to induce activation of PARS and related cell injury.

PARS = PARS (Mus musculus, UniProt P11103); test: PARS inhibition by nucleoside derivatives (in vitro inflammation models); format: cell-based
Source text: For example, conjugates of adenosine derivatives were investigated for PARS inhibition.

[2] = 10 μM, Table 3 parent/reference compounds, read-out: INHIBITION at 10 μM
[3] = 10 μM, values marked *, asterisk not explained, read-out: Inhibition at 10 μM (values marked *)

Chain of PARS (P11103 whole entry): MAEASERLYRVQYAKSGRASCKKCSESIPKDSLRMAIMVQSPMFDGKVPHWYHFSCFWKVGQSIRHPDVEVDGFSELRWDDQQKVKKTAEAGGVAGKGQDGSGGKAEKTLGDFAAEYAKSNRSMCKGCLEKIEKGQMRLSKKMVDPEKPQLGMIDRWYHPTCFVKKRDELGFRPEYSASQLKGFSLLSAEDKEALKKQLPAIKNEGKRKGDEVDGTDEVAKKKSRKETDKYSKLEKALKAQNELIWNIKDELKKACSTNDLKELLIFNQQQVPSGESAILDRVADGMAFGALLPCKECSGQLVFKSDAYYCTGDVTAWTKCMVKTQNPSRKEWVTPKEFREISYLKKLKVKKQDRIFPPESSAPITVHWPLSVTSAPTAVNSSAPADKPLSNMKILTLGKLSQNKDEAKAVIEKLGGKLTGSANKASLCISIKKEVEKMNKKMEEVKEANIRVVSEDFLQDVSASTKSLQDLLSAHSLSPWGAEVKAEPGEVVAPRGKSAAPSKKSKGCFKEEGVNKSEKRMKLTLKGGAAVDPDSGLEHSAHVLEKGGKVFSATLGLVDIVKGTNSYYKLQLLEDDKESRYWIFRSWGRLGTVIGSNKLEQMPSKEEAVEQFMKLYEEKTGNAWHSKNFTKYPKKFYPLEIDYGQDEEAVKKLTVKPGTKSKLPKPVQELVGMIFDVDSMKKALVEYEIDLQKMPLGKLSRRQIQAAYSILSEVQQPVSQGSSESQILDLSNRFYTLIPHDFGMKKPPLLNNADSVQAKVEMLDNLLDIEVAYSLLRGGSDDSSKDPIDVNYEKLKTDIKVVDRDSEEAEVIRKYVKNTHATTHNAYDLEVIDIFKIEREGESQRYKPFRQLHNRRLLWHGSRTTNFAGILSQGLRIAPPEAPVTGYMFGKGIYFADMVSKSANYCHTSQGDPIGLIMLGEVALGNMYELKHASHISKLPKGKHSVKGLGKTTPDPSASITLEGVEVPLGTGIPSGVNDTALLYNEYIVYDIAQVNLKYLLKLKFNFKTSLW
T1 sequence (P11103 whole entry): as above

Compound	inhibition at 10 µM (PARS; read-out: Inhibition at 10 μM) [%]	inhibition at 100 µM (PARS; read-out: Inhibition at 100 μM) [%]	further results
3-N-chloroacetyl-2,3-dihydro-1H-isoindol-1-one [Compound 5]			% Inhibition (10 μM) [1]: 29%
O=C(O)CCn1ccc2c1CCCC2=O [C, reference compound]			inhibition at 10 µM (PARS; [2]): 4%
O=C1NCc2ccccc21 [Compound 1]			inhibition at 10 µM [1]: 33%; inhibition at 10 µM (PARS; [2]): 33%
O=C1NCc2c(F)cccc21 [Compound 2]			inhibition at 10 µM [1]: 27%
O=C1NCc2c1cccc2[N+](=O)[O-] [Compound 3, 4-nitro-2,3-dihydro-1H-isoindol-1-one]			inhibition at 10 µM [1]: 12%
Nc1cccc2c1CNC2=O [Compound 4, 4-amino-2,3-dihydro-1H-isoindol-1-one]			inhibition at 10 µM [1]: 27%; inhibition at 10 µM (PARS; [2]): 27%
CN1CCN(CCC(=O)Nc2cccc3c2CNC3=O)CC1 [Compound 9, 4-N-(N-methylpiperazine)propylamido-2,3-dihydro-1H-isoindol-1-one]			% Inhibition (10 μM) [1]: 59%
CN1CCN(CCCC(=O)Nc2cccc3c2CNC3=O)CC1 [Compound 10, 4-N-(N-methylpiperazine)butylamido-2,3-dihydro-1H-isoindol-1-one]			% Inhibition (10 μM) [1]: 35%
O=C1NCc2c(O)cccc21 [Compound 27, 4-hydroxy-2,3-dihydro-1H-isoindol-1-one]			inhibition at 10 µM [1]: 60%
COc1cccc2c1CNC2=O [Compound 28]			inhibition at 10 µM [1]: 64%
O=C(CCC(=O)N1CCc2ccccc2C1)Nc1cccc2c1CNC2=O [Compound 36, 4-N-(tetrahydroisoquinolinosuccinamido)-2,3-dihydro-1H-isoindol-1-one]			% Inhibition (10 μM) [1]: 64%
N=C(N)NCCC[C@H](N)C(=O)Nc1cccc2c1CNC2=O [Compound 42, 4-N-(arginyl)-2 ,3-dihydro-1H-isoindol-1-one]			% Inhibition (10 μM) [1]: 72%
O=C(O)CCC(=O)Nc1cccc2c1CNC2=O [Compound 55, 4-N-(succinyl)-2,3-dihydro-1H-isoindol-1-one]			% Inhibition (10 μM) [1]: 25%
O=C(CN1CCNCC1)Nc1cccc2c1CNC2=O [Compound 73]			inhibition at 10 µM [1]: 61%
Nc1ncnc2c1ncn2C1OC(CNC(=O)CC(=O)Nc2cccc3c2CNC3=O)C(O)C1O (stereo not shown) [Compound 101]	64	100	
Nc1ncnc2c1ncn2C1OC(CNC(=O)CCC(=O)Nc2cccc3c2CNC3=O)C(O)C1O (stereo not shown) [Compound 102]			inhibition at 10 µM (PARS; read-out: Inhibition at 10 μM, 10 μM): 100%; inhibition at 100 µM (PARS; read-out: Inhibition at 100 μM, 100 μM): 100%
Nc1ncnc2c1ncn2C1OC(CNC(=O)CCCCCC(=O)Nc2cccc3c2CNC3=O)C(O)C1O (stereo not shown) [Compound 105]	66	100	
Nc1ncnc2c1ncn2C1OC(CNC(=O)CCCCCCC(=O)Nc2cccc3c2CNC3=O)C(O)C1O (stereo not shown) [Compound 106]			inhibition at 10 µM (PARS; 10 μM): 98; inhibition at 100 µM (PARS; 100 μM): 100
Nc1ncnc2c1ncn2C1OC(CNC(=O)CCCCCCCC(=O)Nc2cccc3c2CNC3=O)C(O)C1O (stereo not shown) [Compound 107]	62	100	
Nc1ncnc2c1ncn2C1OC(CNC(=O)CCCCCCCCC(=O)Nc2cccc3c2CNC3=O)C(O)C1O (stereo not shown) [Compound 108]	34	74	
CC1(C)OC2C(CNC(=O)CCC(=O)Nc3cccc4c3CNC4=O)OC(n3cnc4c(N)ncnc43)C2O1 (stereo not shown) [Compound 109]	29	60	
CC1(C)OC2C(CNC(=O)CCCC(=O)Nc3cccc4c3CNC4=O)OC(n3cnc4c(N)ncnc43)C2O1 (stereo not shown) [Compound 110]	29	64	
Nc1ncnc2c1ncn2C1OC(CNC(=O)C(O)C(O)C(=O)Nc2cccc3c2CNC3=O)C(O)C1O (stereo not shown) [Compound 111]	75	100	
Nc1ncnc2c1ncn2C1OC(CNC(=O)C(F)(F)C(F)(F)C(F)(F)C(=O)Nc2cccc3c2CNC3=O)C(O)C1O (stereo not shown) [Compound 113]	55	85	
Nc1ncnc2c1ncn2C1OC(CNC(=O)COCC(=O)Nc2cccc3c2CNC3=O)C(O)C1O (stereo not shown) [Compound 114]	56	100	

Compound	inhibition at 10 µM (PARS; read-out: Inhibition at 10 μM) [%]	inhibition at 100 µM (PARS; read-out: Inhibition at 100 μM) [%]	further results
Nc1ncnc2c1ncn2[C@@H]1OC(CNC(=O)c2c(F)ccc(F)c2C(=O)Nc2cccc3c2CNC3=O)[C@@H](O)[C@H]1O (stereo partly shown) [Compound 115]	0	34	
Nc1ncnc2c1ncn2[C@@H]1OC(CNC(=O)c2cc(Cl)c(Cl)cc2C(=O)Nc2cccc3c2CNC3=O)[C@@H](O)[C@H]1O (stereo partly shown) [Compound 116]	0	55	
Nc1ncnc2c1ncn2[C@@H]1OC(CNC(=O)/C=C/c2ccc(C(=O)Nc3cccc4c3CNC4=O)cc2)[C@@H](O)[C@H]1O (stereo partly shown) [Compound 118]	31.3	51.4	
Nc1ncnc2c1ncn2C1OC(CNCC(=O)Nc2cccc3c2CNC3=O)C(O)C1O (stereo not shown) [Compound 119]	25	58	
Nc1ncnc2c1ncn2C1OC(CNC(=O)CNC(=O)Nc2cccc3c2CNC3=O)C(O)C1O (stereo not shown) [Compound 120]	62	100	
Nc1ncnc2c1ncn2C1OC(CNC(=O)CC(O)CC(=O)Nc2cccc3c2CNC3=O)C(O)C1O (stereo not shown) [Compound 121]		81	inhibition at 10 µM (PARS; [3]): 13.3%
O=C(CCC(=O)Nc1cccc2c1CNC2=O)NCC1OC(n2cnc3c(NCC4CC4)ncnc32)C(O)C1O (stereo not shown) [Compound 122]			inhibition at 10 µM (PARS; [3]): 25%
CN(CC(=O)Nc1cccc2c1CNC2=O)C(=O)C1OC(n2cnc3c(N)ncnc32)C(O)C1O (stereo not shown) [Compound 123]			inhibition at 10 µM (PARS; [3]): 74%
CN(CCCCCCCC(=O)Nc1cccc2c1CNC2=O)C(=O)C1OC(n2cnc3c(N)ncnc32)C(O)C1O (stereo not shown) [Compound 125]			inhibition at 10 µM (PARS; [3]): 70%
CCN(CC(=O)Nc1cccc2c1CNC2=O)C(=O)C1OC(n2cnc3c(N)ncnc32)C(O)C1O (stereo not shown) [Compound 126]			inhibition at 10 µM (PARS; [3]): 67.1%
CCN(CCC(=O)Nc1cccc2c1CNC2=O)C(=O)C1OC(n2cnc3c(N)ncnc32)C(O)C1O (stereo not shown) [Compound 127]			inhibition at 10 µM (PARS; [3]): 89%
Nc1ncnc2c1ncn2C1OC(C(=O)NCC(=O)Nc2cccc3c2CNC3=O)C(O)C1O (stereo not shown) [Compound 128]			inhibition at 10 µM (PARS; [3]): 83.2%
Nc1ncnc2c1ncn2C1OC(C(=O)NCCC(=O)Nc2cccc3c2CNC3=O)C(O)C1O (stereo not shown) [Compound 129]			inhibition at 10 µM (PARS; [3]): 77.4%
Nc1ncnc2c1ncn2C1OC(CNC(=O)CCCCCCC(=O)Nc2cccc3c2CNC3=O)C(O)C1O (stereo not shown) [Compound 131]			inhibition at 10 µM (PARS; 10 μM): 36; inhibition at 100 µM (PARS; 100 μM): 68
O=C(CCC(=O)Nc1cccc2c1CNC2=O)NCC1OC(n2ccc(O)nc2=O)C(O)C1O (stereo not shown) [Compound 132]	61	83	
NC(=O)c1ccccc1-c1cccc(NC(=O)CCC(=O)NCC2OC(n3cnc4c(N)ncnc43)C(O)C2O)c1 (stereo not shown) [Compound 133]	5	69	
NC(=O)c1cccc(NC(=O)CCC(=O)NCC2OC(n3cnc4c(N)ncnc43)C(O)C2O)c1 (stereo not shown) [Compound 134]	52	73	
CC1(C)OC2C(CNC(=O)CCn3ccc4c3CCCC4=O)OC(n3cnc4c(N)ncnc43)C2O1 (stereo not shown) [Compound 135]	15	25	
Nc1ncnc2c1ncn2C1OC(CNC(=O)CCn2ccc3c2CCCC3=O)C(O)C1O (stereo not shown) [Compound 136]	32	42	
CC1(C)OC2C(CN3C(=O)c4ccccc4C3=O)OC(n3cnc4c(N)ncnc43)C2O1 (stereo not shown) [Compound 137]	21	40	
NCC1OC(n2cnc3c(N)ncnc32)C(O)C1O (stereo not shown) [Compound 139]		27	
Nc1ncnc2c1ncn2C1OC(C(=O)O)C(O)C1O (stereo not shown) [Compound 140]	14.2		
NC(=O)c1ccccc1-c1cccc(N)c1 [F, reference compound]			inhibition at 10 µM (PARS; [2]): 37%
Nc1ncnc2c1ncn2[C@@H]1O[C@H](CO)[C@@H](O)[C@H]1O [G, adenosine, reference compound]			PARS inhibitory activity (in words) (PARS): only modest activity; inhibition at 10 µM (PARS; [2]): 40%
